Test system: human engineered cardiac tissues (human iPSC derived cardiomyocytes co-cultured with human cardiac fibroblasts)
Assay: Drug testing with electrical stimulation of engineered cardiac tissues in the Biowire II 96-well plate (contractile dynamics from polymer wire displacement)
Type: cell-based
Details: thapsigargin 50×10^−6 m, n=2; for frequency of tissue beating: constant stimulation frequency 1.5 Hz, day 19, video after 15 min; for tissue contraction and relaxation time: electrical pacing 1.5 Hz, day 19 (after 12 days of electrical stimulation), video after 15 min
Procedure: To generate cardiac tissues, human iPSC derived cardiomyocytes co-cultured with human cardiac fibroblasts were seeded with hydrogel in the 96-well plate device. Tissue compaction in the first seven days was observed (FIG. 7A, FIG. 7B), with dramatic change in the first two days followed by stabilization after day 3. Electrical field stimulation of cardiac tissues was initiated at day 7 and continued for the additional 12 days. […] Thapsigargin (50×10^-6 m), an inhibitor of sarcoplasmic reticulum function in cardiomyocytes, was added in the presence of electrical pacing (1.5 Hz), resulting in a prolonged tissue contraction and relaxation time (FIG. 7H). […] Predominantly ventricular cardiomyocytes (CMs) were derived from the hiPSC line BJ1D, using monolayer differentiation protocols as previously described. At day 21 of differentiation, cardiomyocytes were disassociated into single cells with previously established methods. Briefly, 1 mg mL^-1 of collagenase type II (Worthington, LS004205) in Hank's Balanced Salt Solution was added to the monolayer cardiomyocyte cultures and incubated overnight at room temperature. The disassociated cells were mixed with cardiac fibroblasts (Lonza, NHCF-V) in a 10:1 cell number ratio. The mixed cells were pelleted and remixed in collagen hydrogel at 5.5×10^7 cells mL^-1. The cell-gel mixture was seeded at […] per microwell. A droplet of media was placed on the wall of the well to keep the moisture until gelation was complete. The plate was incubated at 37° C. and 5% CO2 for 10 min followed by media addition. After seeding (day 0), the tissues were cultured for seven days to allow remodeling around the POMaC wires. Bright field images of the tissues were taken daily to monitor tissue morphology. By day 7, the tissues synchronously contracted and deflected the POMaC wire with each contraction. SpectraMax […] 300 Imaging Cytometer was used to image tissues in the well plate to monitor the daily morphology changes of tissues. Nine pictures were taken in each well of the 96-well plate and automatically stitched together to show the entire view of the well. […] Average tissue width and width of the tissue (Tw), attachment site to the polymer sensor were measured using bright field images at the relaxed state. Passive displacement of polymer sensors was assessed in blue channel. […] The final readouts for the total and passive forces were interpolated according to the Tw and custom tip sizes. […] With built-in force sensor and electrodes, tissues were able to be assessed in situ in terms of their contractile dynamics and drug responses. […] The videos were analyzed using the custom MATLAB software. […]

C/C=C(/C)C(=O)O[C@H]1C(C)=C2[C@H]([C@@H]1OC(=O)CCCCCCC)[C@@](C)(OC(C)=O)C[C@H](OC(=O)CCC)[C@@]1(O)[C@H]2OC(=O)[C@@]1(C)O [Thapsigargin]
frequency of tissue beating: decreased by half | frequency of tissue beating (listed as thapsigargin): reduced by half | tissue contraction and relaxation time: prolonged | tissue contraction and relaxation time (listed as thapsigargin): slowed

From patent US12595449B2, “Integrated system for 3D tissue culture” (Valo Health, Inc., priority 2020, dated 2026)
